Reference: PubChem BioAssay (NCI)
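Following 48 hours of exposure in 96-well plates, responses at five concentrations were used to interpolate endpoints linearly. GI50: concentration for 50% inhibition of growth. TGI marks complete inhibition of growth.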

Columns and labels:
Experiment in all cases: growth of human tumour cells (NCI), 48 h
[1] = system: A498 renal
[2] = system: ACHN renal
[3] = system: BT-549 breast
[4] = system: CAKI-1 renal
[5] = system: CCRF-CEM leukemia
[6] = system: DU-145 prostate
[7] = system: HCC-2998 colon
[8] = system: HL-60(TB) leukemia
[9] = system: HS 578T breast
[10] = system: HT29 colon
[11] = system: K-562 leukemia
[12] = system: KM12 colon
[13] = system: MALME-3M melanoma
[14] = system: MDA-MB-435
[15] = system: MOLT-4 leukemia
[16] = system: NCI-H460 lung
[17] = system: OVCAR-3 ovarian
[18] = system: OVCAR-5 ovarian
[19] = system: RPMI-8226 leukemia
[20] = system: SK-MEL-2 melanoma
[21] = system: SK-MEL-5 melanoma
[22] = system: SN12C renal
[23] = system: SNB-75 CNS
[24] = system: SR leukemia
[25] = system: SW-620 colon
[26] = system: T-47D breast
[27] = system: TK-10 renal
[28] = system: UO-31 renal
[29] = system: 786-0 renal
[30] = system: A549 NSCLC
[31] = system: COLO 205 colon
[32] = system: EKVX NSCLC
[33] = system: HCT-116 colon
[34] = system: HCT-15 colon
[35] = system: HOP-62 NSCLC
[36] = system: HOP-92 NSCLC
[37] = system: IGROV1 ovarian
[38] = system: LOX IMVI melanoma
[39] = system: M14 melanoma
[40] = system: MCF7 breast
[41] = system: MDA-MB-231 breast
[42] = system: NCI-H226 lung
[43] = system: NCI-H522 lung
[44] = system: NCI/ADR-RES ovarian
[45] = system: OVCAR-4 ovarian
[46] = system: OVCAR-8 ovarian
[47] = system: PC-3 prostate
[48] = system: RXF 393 renal
[49] = system: SF-268 CNS
[50] = system: SF-295 CNS
[51] = system: SF-539 CNS
[52] = system: SK-MEL-28 melanoma
[53] = system: SK-OV-3 ovarian
[54] = system: SNB-19 CNS
[55] = system: U251 CNS
[56] = system: UACC-257 melanoma
[57] = system: UACC-62 melanoma

COc1ccc2[nH]cc(/C=N/Nc3ccnc4cc(Cl)ccc34)c2c1
GI50 [1]: 1.49 µM | TGI [1]: 2.83 µM | GI50 [2]: 0.346 µM | TGI [2]: 1.07 µM | GI50 [3]: 1.68 µM | TGI [3]: 3.09 µM | GI50 [4]: 1.54 µM | TGI [4]: 2.91 µM | GI50 [5]: 0.304 µM | TGI [5]: 1.12 µM | GI50 [6]: 0.729 µM | TGI [6]: 1.98 µM | GI50 [7]: 1.67 µM | TGI [7]: 3.19 µM | GI50 [8]: 0.265 µM | TGI [8]: 0.859 µM | GI50 [9]: 1.99 µM | TGI [9]: 4.81 µM | GI50 [10]: 0.219 µM | TGI [10]: 0.482 µM | GI50 [11]: 0.3 µM | TGI [11]: > 100 µM | GI50 [12]: 1.65 µM | TGI [12]: 3.92 µM | GI50 [13]: 1.76 µM | TGI [13]: 3.22 µM | GI50 [14]: 1.67 µM | TGI [14]: 3.06 µM | GI50 [15]: 0.265 µM | TGI [15]: 0.713 µM | GI50 [16]: 0.202 µM | TGI [16]: 0.409 µM | GI50 [17]: 1.58 µM | TGI [17]: 3.16 µM | GI50 [18]: 1.49 µM | TGI [18]: 2.84 µM | GI50 [19]: 0.271 µM | TGI [19]: 0.671 µM | GI50 [20]: 1.83 µM | TGI [20]: 3.48 µM | GI50 [21]: 1.65 µM | TGI [21]: 3.06 µM | GI50 [22]: 1.6 µM | TGI [22]: 3 µM | GI50 [23]: 1.56 µM | TGI [23]: 2.93 µM | GI50 [24]: 0.171 µM | TGI [24]: 4.14 µM | GI50 [25]: 0.186 µM | TGI [25]: 0.379 µM | GI50 [26]: 1.28 µM | TGI [26]: 3.59 µM | GI50 [27]: 1.9 µM | TGI [27]: 3.35 µM | GI50 [28]: 1.47 µM | TGI [28]: 2.78 µM

OC1CCN(CCCOc2c3ccccc3nc3c2oc2ccccc23)CC1
GI50 [29]: 2.3 µM | TGI [29]: 18 µM | GI50 [1]: 1.73 µM | TGI [1]: 3.38 µM | GI50 [30]: 2.54 µM | TGI [30]: 16.4 µM | GI50 [2]: 0.8 µM | TGI [2]: 25.2 µM | GI50 [3]: 2.8 µM | TGI [3]: 8.88 µM | GI50 [4]: 1.67 µM | TGI [4]: 12.9 µM | GI50 [5]: 2.12 µM | TGI [5]: 16.3 µM | GI50 [31]: 1.06 µM | TGI [31]: 2.83 µM | GI50 [6]: 3.66 µM | TGI [6]: 23.1 µM | GI50 [32]: 2.79 µM | TGI [32]: 12.9 µM | GI50 [7]: 1.46 µM | TGI [7]: 3.76 µM | GI50 [33]: 0.505 µM | TGI [33]: 12.3 µM | GI50 [34]: 2.02 µM | TGI [34]: 9.73 µM | GI50 [35]: 2.32 µM | TGI [35]: 11.9 µM | GI50 [36]: 0.853 µM | TGI [36]: 4.28 µM | GI50 [9]: 2.38 µM | TGI [9]: 8.83 µM | GI50 [10]: 1.1 µM | TGI [10]: 3.65 µM | GI50 [37]: 2.61 µM | TGI [37]: 11.3 µM | GI50 [12]: 2.99 µM | TGI [12]: 49.6 µM | GI50 [38]: 0.626 µM | TGI [38]: 3.51 µM | GI50 [39]: 2.39 µM | TGI [39]: 7.89 µM | GI50 [13]: 1.86 µM | TGI [13]: 3.95 µM | GI50 [40]: 2.31 µM | TGI [40]: 10.1 µM | GI50 [41]: 2.37 µM | TGI [41]: 11.1 µM | GI50 [14]: 2.31 µM | TGI [14]: 6.79 µM | GI50 [42]: 1.9 µM | TGI [42]: 4.74 µM | GI50 [16]: 1.59 µM | TGI [16]: 11.1 µM | GI50 [43]: 1.57 µM | TGI [43]: 4.38 µM | GI50 [44]: 1.03 µM | TGI [44]: 8.1 µM | GI50 [17]: 3.61 µM | TGI [17]: 24.9 µM | GI50 [45]: 2.14 µM | TGI [45]: 8.63 µM | GI50 [18]: 2.47 µM | TGI [18]: 9.49 µM | GI50 [46]: 1.81 µM | TGI [46]: 6.71 µM | GI50 [47]: 2.12 µM | TGI [47]: 7.93 µM | GI50 [19]: 2.47 µM | TGI [19]: 7.46 µM | GI50 [48]: 1.32 µM | TGI [48]: 3.64 µM | GI50 [49]: 2.53 µM | TGI [49]: 14.8 µM | GI50 [50]: 2.39 µM | TGI [50]: 10.5 µM | GI50 [51]: 2.02 µM | TGI [51]: 6.4 µM | GI50 [20]: 1.93 µM | TGI [20]: 3.59 µM | GI50 [52]: 1.93 µM | TGI [52]: 3.81 µM | GI50 [21]: 1.77 µM | TGI [21]: 3.2 µM | GI50 [53]: 2.56 µM | TGI [53]: 8.7 µM | GI50 [22]: 1.7 µM | TGI [22]: 13.5 µM | GI50 [54]: 2.36 µM | TGI [54]: 14.8 µM | GI50 [23]: 1.86 µM | TGI [23]: 4.3 µM | GI50 [25]: 0.825 µM | TGI [25]: 11.9 µM | GI50 [26]: 2.51 µM | TGI [26]: 7.27 µM | GI50 [27]: 2.41 µM | TGI [27]: 7.73 µM | GI50 [55]: 2.14 µM | TGI [55]: 12.2 µM | GI50 [56]: 1.83 µM | TGI [56]: 3.72 µM | GI50 [57]: 1.86 µM | TGI [57]: 4.43 µM | GI50 [28]: 1.18 µM | TGI [28]: 3.13 µM
